Assay results taken from PMC9405451, “Uptake and Immunomodulatory Properties of Betanin, Vulgaxanthin I and Indicaxanthin towards Caco-2 Intestinal Cells” (Antioxidants, 2022).

Legend:
IL-8 = IL-8 mRNA level (qPCR) in cytokine-stimulated Caco-2 cells; type: cell-based, human; details: 10 μM co-treatment, 6 h, positive control (not shown)
Experimental: (§1) Confluent Caco-2 cells were stimulated with a cocktail of cytokines comprised of tumour necrosis factor-α (TNF-α, 20 ng mL^−1), interleukin-1β (IL-1β, 40 ng mL^−1), interferon-γ (IFN-γ, 10 ng mL^−1) and lipopolysaccharide (LPS, 100 ng mL^−1) in the presence or absence of BET, VUL and IND treatments (5–80 µM) for 6 h. With the completion of incubations, cells were washed with cold DPBS and lysed with TRIsure reagent (Scientific Laboratory Supplies Ltd.). Total RNA of cell samples was extracted in accordance with the manufacturer’s instructions. After resuspending the RNA pellets in DEPC water, concentration and quality were determined using the NanoQuant plate (Tecan Spark 10M plate reader) at 260 and 280 nm. Reverse transcription of RNA was achieved using the iScript™ cDNA Synthesis Kit (Bio-Rad). Transcription levels of target genes—interleukin 6 (IL-6), IL-8, COX-2, iNOS, NADPH oxidase 1 (NOX-1), NAD(P)H quinone dehydrogenase 1 (NQO-1), heme oxygenase 1 (HO-1), glutamate-cysteine ligase catalytic subunit (GCLC), glutathione peroxidase 1 (GPX-1), glutathione S-transferase 1 (GSTA-1) and GSTP-1 were evaluated using SybrGreen based reagent (SensiFast SYBR Green, SLS Ltd., Galveston, TX, USA) via real-time qPCR using StepOne Plus Real-Time PCR System (Applied Biosystems, Nottingham, UK). Primers of target genes were designed and blasted using the NCBI database, whose PCR product sizes were confirmed by 2% agarose gel electrophoresis. The list of primer sequences used in the study is presented in Supplemental Table S1. The calculation of target gene levels was based upon the Livak (2^−ΔΔCT) method with normalisation to the housekeeping gene, β-actin [31].

IL-6 = IL-6 mRNA level (qPCR) in cytokine-stimulated Caco-2 cells; type: cell-based, human; details: 10 μM co-treatment, 6 h, positive control (not shown)
Experimental: as §1

Compound: COc1cc(/C=C/C(=O)CC(=O)/C=C/c2ccc(O)c(OC)c2)ccc1O [curcumin, reference compound]
- Effect on cytokine-induced IL-8 generation (IL-8): strongly suppressed
- Effect on cytokine-induced IL-6 generation (IL-6): strongly suppressed
